# Counter-ions that a name gives are not always drawn. Like-named read-outs stand apart in the source and are kept apart here.
# Assays:
# PRMT5/MEP50 = molecular target: T1, PRMT5/MEP50 (Homo sapiens, UniProt O14744); experiment: PRMT5 enzymatic activity inhibition experiment (AlphaScreen); format: biochemical
# T1 construct: purchased BPS Bioscience Inc. (USA)
# Description: Materials: PRMT5/MEP50 proteins were purchased from BPS Bioscience Inc. (USA); Histone H4 Peptide substrate was purchased from Sangon Biotech (Shanghai) Co., Ltd.; Anti-Histone H4 (symmetric dimethyl R3) antibody—ChIP Grade was purchased from Abcam PLC. (USA); S-(5′-Adenosyl)-L-methionine chloride dihydrochloride was purchased from Sigma PLC. (USA); 384-well plate, AlphaScreen Streptavidin Donor beads, AlphaScreen Protein A Acceptor beads, and Envision 2104 multi-label Reader were purchased from Perkin-Elmer Instruments (USA) Corporation; and Echo 550 Liquid Handler was purchased from Labcyte Inc. (USA).
# Enzymatic activity assay: The compounds were added into a 384-well plate by using the Echo 550 Liquid Handler with the final concentration of 0-1000 nM (initial concentration: 1000 nM, 3-fold dilution, for 10 points), and the DMSO content was 0.5%. 10 μL of a 2× PRMT5/MEP50 solution was added into each well and incubated at room temperature for 30 minutes. 10 μL of 2× PRMT5/MEP50 substrate solution was added to each well to start the reaction and incubated at room temperature for 60 minutes. A 6× detection reagent containing AlphaScreen Protein A Acceptor beads and Anti-Histone H4 (symmetric dimethyl R3) antibodies was prepared and 5 μL was added to each well. The plate was incubated at room temperature for 60 minutes. A 6× detection reagent containing AlphaScreen Streptavidin Donor beads was prepared and 5 μL was added to each well. The plate was incubated at room temperature for 60 minutes. The signal values were detected by using the Envision.
# Z-138 cells = experiment: Inhibitory activity on tumor cell proliferation (Cell-Titer Glo, 8 days); format: cell-based; settings: Homo sapiens, 192 h, read-out: Inhibition of cell proliferation Z-138 IC50
# Procedure: Materials and cells: Z-138 cells were purchased from ATCC (USA); IMDM medium and penicillin-streptomycin were purchased from Sigma PLC. (USA); horse serum was purchased from Hyclone (USA); 96-well plate was purchased from Corning (USA); and Cell-Titer Glo reagent was purchased from Promega (USA).
# (§1) Cell culture: Z-138 cells were cultured in an IMDM culture solution containing 10% Horse serum+1% penicillin−streptomycin at 37° C., 5% CO2. Cells in logarithmic growth phase were suitable for the experiment.
# Detection of cell proliferation activity: The inhibitory activities of the compounds on the proliferation of Z-138 cells were detected by using the Cell-Titer Glo reagent. The concentrations of the cells were adjusted, and 180 μL was inoculated in each well of the 96-well plate (500/well) and equilibrated for 10-15 minutes at 37° C., 5% CO2. 20 μL of a culture solution containing the compounds was added into each well with the final concentration reaching 0-300 nM (initial concentration: 300 nM, 3-fold dilution, for 10 points), and the DMSO content was 0.1%. The cell plate was placed at 37° C., 5% CO2 and incubated for 8 days. Culture solution was replaced at day 4: 100 μL of the supernatant was slowly aspirated and 100 μL of a fresh culture solution containing the compounds was provided as a supplement while the concentrations of the compounds were held constant. The cell viability was detected by using the Cell-Titer Glo reagent.
# SDMA in Z-138 cells = experiment: Inhibitory activity on SDMA in cells (immunofluorescent assay); format: cell-based; settings: Homo sapiens, 48 h, 2 days, read-out: Inhibition of SDMA in cells IC50
# Description: Materials and cells: Z-138 cells were purchased from ATCC (USA); IMDM medium and penicillin-streptomycin were purchased from Sigma PLC. (USA); horse serum was purchased from Hyclone (USA); Hoechst antibodies were purchased from Invitrogen (USA); Alexa Fluor 488 goat anti-rabbit IgG antibodies were purchased from Invitrogen (USA); Anti-dimethyl-Arginine symmetric (SYM11) antibodies were purchased from Merck & Co., Inc. (USA); DPBS was purchased from Gibco (USA); Nonfat Dry milk was purchased from Cell Signaling Technology (USA); paraformaldehyde was purchased from Beijing Solarbio Science & Technology Co., Ltd.; 384-well plate and Echo 550 Liquid Handler were purchased from Labcyte Inc. (USA); and an ImageXpress Nano was purchased from Molecular Devices (USA).
# as §1
# Immunofluorescent assay: The effects of the compounds on SDMA in Z-138 cells were detected by using immunofluorescence. The cells were adjusted to the concentration of 1*10^5/mL and 40 μL was inoculated in each well of the 384-well plate (4000/well) and equilibrated for 10-15 minutes at 37° C., 5% CO2. The compound was added into a 384-well plate by using the Echo 550 Liquid Handler with the final concentration of 0-300 nM (initial concentration: 300 nM, 3-fold dilution, for 10 points), and the DMSO content was 0.1%. The cell plate was placed at 37° C., 5% CO2 and incubated for 2 days. 40 μL of 8% paraformaldehyde was added into each well and incubated at room temperature for 30 minutes. The supernatant was discarded, the plate was washed with DPBS, and 40 μL of 0.5% PBST (phosphate buffer with Tween) was added into each well and incubated at room temperature for 60 minutes. The supernatant was discarded, the plate was washed with 0.05% PBST, and 40 μL of a blocking solution (1% Nonfat milk in 0.05% PBST) was added into each well and incubated at room temperature for 60 minutes. The supernatant was discarded, and 20 μL of the primary antibody (SYM11, diluted with a blocking solution at 1:500) was added into each well and maintained at 4° C. overnight. The supernatant was discarded, the plate was washed with 0.05% PBST, 20 μL of the secondary antibody (Alexa Fluor 488 goat anti-rabbit and Hoechst, diluted with a blocking solution at 1:1000 and 1:5000, respectively) was added to each well and incubated at room temperature for 60 minutes. The supernatant was discarded, the plate was washed with 0.05% PBST, and the fluorescent intensity was detected with ImageXpress Nano.
# in vitro [1] = settings: human, hepatocytes
# Description: (§2) Experimental materials: Human hepatocytes were purchased from Biopredic; mouse hepatocytes were purchased from BioIVT; acetonitrile and methanol were purchased from Merck & Co., Inc.; AOPI dyes were purchased from Nexcelom; dexamethasone was purchased from NIFDC; DMSO was purchased from Beijing Solarbio Science & Technology Co., Ltd.; DPBS (10×), GlutaMAX™-1 (100×) and recombinant human insulin were purchased form Gibco by Life Technologies; fetal bovine serum was purchased from Corning; formic acid was purchased from DIKMAPURE; Isotonic Percoll was purchased from GE Healthcare; alprazolam was purchased from Supelco; caffeine was purchased from ChromaDex.inc; and HEPES, tolbutamide and Williams' Medium E were purchased from Sigma.
# (§3) The powder of a test substance was formulated with DMSO into a stock solution with a high concentration, which was diluted to a working solution of 100 μM with acetonitrile prior to use. The final concentration of the test substance was 1 μM.
# (§4) 49.5 mL of Williams'E Medium and 0.5 mL of GlutaMAX were mixed as an incubation media. Hepatocyte thawing media and incubation media were placed in a 37° C. water-bath and pre-heated for at least 15 minutes prior to use. A tube of hepatocytes stored at an ultra-low temperature was taken and the hepatocytes were ensured to be at a frozen state at a low temperature prior to thawing. The hepatocytes were rapidly placed in a 37° C. water-bath and gently shaken until all the ice crystals were dispersed, and then after 70% ethanol was sprayed, the hepatocytes were transferred to a biosafety cabinet. The content of the tube was poured into a centrifugal tube containing 50 mL of thawing media and centrifuged at 100 g for 10 minutes. After centrifugation, the thawing media was aspirated, and a sufficient amount of incubation media was added to obtain a cell suspension with a cell density of about 1.5×10^6 cells/mL. The hepatocytes were counted, and the viable cell density was determined using Cellometer Vision, and the survival rate of the hepatocytes must be higher than 75%. The hepatocyte suspension was diluted by using the incubation media to a viable cell density of 0.5×10^6 viable cells/mL.
# (§5) 247.5 μL of viable cell (human hepatocytes or mouse hepatocytes) suspension or media were transferred into a 96-well deep-well plate, and the deep-well plate was placed in a vortex incubator and pre-heated for 10 minutes. Incubation of all the samples was performed in parallel duplicate. Test substance (2.5 μL, 100 μM) was added into each well to start the reaction and the deep-well plate was placed in the vortex incubator again. The samples were incubated, and 25 μL of the suspension was taken at 0, 15, 30, 60, 90 and 120 minutes, respectively. 125 μL of acetonitrile containing internal standard (100 nM alprazolam, 200 nM caffeine, and 100 nM tolbutamide) was added to terminate the reaction. The mixture was vortexed for 10 minutes and centrifuged at 3220 g, 4° C. for 30 minutes. After centrifugation, 100 μL of the supernatant was transferred into the loading plate and 150 μL of pure water was added and mixed uniformly for LC-MS/MS analysis.
# (§6) All the data calculation was performed by the Microsoft Excel software. The peak area was detected by extracting the ion chromatogram. The in vitro half-life (t1/2) of the parent drug was detected by performing linear fitting of the natural logarithm of elimination percent of the parent drug and time.
# (§7) The in vitro half-life (t1/2) was calculated by means of the slope:
# in vitro [2] = settings: mouse, hepatocytes
# Description: as §2, §3, §4, §5, §6, §7
# [3] = Hepatocellular metabolic stability test, human hepatocytes
# Description: as §2, §3, §4, §5, §6, §7
# [4] = Hepatocellular metabolic stability test, mouse hepatocytes
# Description: as §2, §3, §4, §5, §6, §7
# [5] = PRMT5/MEP50, Histone H4 peptide substrate, read-out: Inhibition of enzymatic activity IC50
# T1 sequence (O14744 2-637 limits assumed): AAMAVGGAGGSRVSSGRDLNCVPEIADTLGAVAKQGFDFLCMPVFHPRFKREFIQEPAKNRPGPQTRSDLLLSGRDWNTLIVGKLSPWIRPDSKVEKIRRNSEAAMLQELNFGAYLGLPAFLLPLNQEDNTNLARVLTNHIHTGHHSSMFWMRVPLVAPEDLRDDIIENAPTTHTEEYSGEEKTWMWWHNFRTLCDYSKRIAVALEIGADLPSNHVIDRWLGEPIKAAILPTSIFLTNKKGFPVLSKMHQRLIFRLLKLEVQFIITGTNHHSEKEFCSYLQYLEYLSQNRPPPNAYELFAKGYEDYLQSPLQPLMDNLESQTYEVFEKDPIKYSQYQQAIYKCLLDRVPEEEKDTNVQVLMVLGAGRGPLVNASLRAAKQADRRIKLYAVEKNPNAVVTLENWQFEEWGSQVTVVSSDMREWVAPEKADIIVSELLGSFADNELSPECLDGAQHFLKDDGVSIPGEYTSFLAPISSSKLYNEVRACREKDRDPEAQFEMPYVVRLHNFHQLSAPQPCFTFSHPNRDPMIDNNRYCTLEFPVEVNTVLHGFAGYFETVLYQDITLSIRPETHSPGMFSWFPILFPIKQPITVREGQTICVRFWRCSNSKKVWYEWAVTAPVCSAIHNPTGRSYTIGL
# T1 sequence (Q9BQA1 2-342 partner limits assumed): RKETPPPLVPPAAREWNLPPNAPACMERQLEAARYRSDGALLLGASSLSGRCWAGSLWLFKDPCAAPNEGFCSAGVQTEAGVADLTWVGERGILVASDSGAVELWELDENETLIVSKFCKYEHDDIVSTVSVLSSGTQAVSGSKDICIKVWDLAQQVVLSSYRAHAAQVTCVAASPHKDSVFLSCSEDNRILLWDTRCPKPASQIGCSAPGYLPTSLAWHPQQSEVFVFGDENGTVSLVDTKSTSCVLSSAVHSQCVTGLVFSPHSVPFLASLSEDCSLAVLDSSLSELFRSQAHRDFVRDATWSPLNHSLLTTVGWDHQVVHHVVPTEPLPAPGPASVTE
IC50 (PRMT5/MEP50; [5]),half-life at 1 μM (in vitro [1]),half-life at 1 μM (in vitro [2]),SMILES,IC50 (Z-138 cells),IC50 (SDMA in Z-138 cells),IC50 (PRMT5/MEP50),half-life at 1 μM [3],half-life at 1 μM [4]
4.96 nM,–,–,"COC1CC2(CCN(C(=O)c3ccc4c(c3)OCCN(C[C@@H](O)[C@@H]3Cc5ccccc5CN3)C4=O)CC2)C1 [Compound 009, 4-((R)-2-hydroxy-2-((S)-1,2,3,4-tetrahydroisoquinolin-3-yl)ethyl)-8-(2-methoxy-7-azaspiro[3.5]nonane-7-carbonyl)-3,4-dihydrobenzo[f][1,4]oxazepin-5(2H)-one]",2.97 nM,6.1 nM,–,–,–
2.02 nM,131 h,1.97 h,"CCN1CCN(C[C@@H](O)[C@@H]2Cc3ccccc3CN2)C(=O)c2ccc(C(=O)N3CCC4(CC3)CC(C#N)C4)cc21 [Compound 003, 7-(1-ethyl-4-((R)-2-hydroxy-2-((S)-1,2,3,4-tetrahydroisoquinolin-3-yl)ethyl)-5-oxo-2,3,4,5-tetrahydro-1H-benzo[e][1,4]diazepine-8-carbonyl)-7-azaspiro[3.5]nonane-2-carbonitrile]",1.21 nM,0.8 nM,–,–,–
–,–,–,"COC1CC2CCC(C1)N2C(=O)c1ccc2c(c1)N(C)CCN(C[C@@H](O)[C@@H]1Cc3ccccc3CN1)C2=O.Cl (stereo partly drawn) [Compound 005, 4-((R)-2-hydroxy-2-((S)-1,2,3,4-tetrahydroisoquinolin-3-yl)ethyl)-8-(3-methoxy-8-azabicyclo[3.2.1]octane-8-carbonyl)-1-methyl-1,2,3,4-tetrahydro-5H-benzo[e][1,4]diazepin-5-one hydrochloride]",4.27 nM,1.5 nM,6.73 nM,5.61 h,1.3 h
–,–,–,"CCN1CCN(C[C@@H](O)[C@@H]2Cc3ccccc3CN2)C(=O)c2ccc(C(=O)N3C4CCC3COC4)cc21.Cl [Compound 001, 8-(3-oxa-8-azabicyclo[3.2.1]octane-8-carbonyl)-1-ethyl-4-((R)-2-hydroxy-2-((S)-1,2,3,4-tetrahydroisoquinolin-3-yl)ethyl)-1,2,3,4-tetrahydro-5H-benzo[e][1,4]diazepin-5-one hydrochloride]",3.47 nM,3.8 nM,4.56 nM,24.5 h,2.04 h
–,–,–,"CCN1CCN(C[C@@H](O)[C@@H]2Cc3ccccc3CN2)C(=O)c2ccc(C(=O)N3C4CCC3CC(OC)C4)cc21.Cl (stereo partly drawn) [Compound 004, 1-ethyl-4-((R)-2-hydroxy-2-((S)-1,2,3,4-tetrahydroisoquinolin-3-yl)ethyl)-8-(3-methoxy-8-azabicyclo[3.2.1]octane-8-carbonyl)-1,2,3,4-tetrahydro-5H-benzo[e][1,4]diazepin-5-one hydrochloride]",1.87 nM,1.4 nM,4.53 nM,11.2 h,0.871 h
3.62 nM,–,–,"CCN1CCN(C[C@@H](O)[C@@H]2Cc3ccccc3CN2)C(=O)c2ccc(C(=O)N3CCC4(CCC(OC)CC4)CC3)cc21 [Compound 006, 1-ethyl-4-((R)-2-hydroxy-2-((S)-1,2,3,4-tetrahydroisoquinolin-3-yl)ethyl)-8-(9-methoxy-3-azaspiro[5.5]undecane-3-carbonyl)-1,2,3,4-tetrahydro-5H-benzo[e][1,4]diazepin-5-one hydrochloride]",4.8 nM,1.8 nM,–,–,–
–,12.9 h,0.588 h,"CCN1CCN(C[C@@H](O)[C@@H]2Cc3ccccc3CN2)C(=O)c2ccc(C(=O)N3CCC4(CC3)CC(O)C4)cc21 [Compound 024, 1-ethyl-4-((R)-2-hydroxy-2-((S)-1,2,3,4-tetrahydroisoquinolin-3-yl)ethyl)-8-(2-hydroxy-7-azaspiro[3.5]nonane-7-carbonyl)-1,2,3,4-tetrahydro-5H-benzo[e][1,4]diazepin-5-one]",10.6 nM,–,–,–,–

SMILES,IC50 (PRMT5/MEP50; [5]),half-life at 1 μM (in vitro [1]),half-life at 1 μM (in vitro [2]),IC50 (Z-138 cells),IC50 (SDMA in Z-138 cells),IC50 (PRMT5/MEP50),half-life at 1 μM [3],half-life at 1 μM [4]
"COC1CC2CCC(C1)N2C(=O)c1ccc2c(c1)OCCN(C[C@@H](O)[C@@H]1Cc3ccccc3CN1)C2=O (stereo partly drawn) [Compound 008, 4-((R)-2-hydroxy-2-((S)-1,2,3,4-tetrahydroisoquinolin-3-yl)ethyl)-8-(3-methoxy-8-azabicyclo[3.2.1]octane-8-carbonyl)-3,4-dihydrobenzo[f][1,4]oxazepin-5(2H)-one]",12.2 nM,–,–,6.04 nM,–,–,–,–
